Counter-ions that a name gives are not always drawn.

The test system of this test is umbilical cord MSCs (P3-P5 cells). Kind of test: agglomeration of cultured MSCs after adding ligustrazine hydrochloride and/or Shenmai injection (cell graphs). Type of test: cell-based, human. As to conditions: Day 1 after addition, ligustrazine hydrochloride 40-80 mg/L, Shenmai injection 0.5% by volume, FIG. 1 to FIG. 9. The procedure: 2.9 A ligustrazine hydrochloride (GYZZ H20041175 injection of Harbin Medisan Pharmaceutical Co., Ltd., which follows the Second Supplement to the National Standard and can be directly injected into human bodies) and a Shenmai injection (GYZZ Z63021721 of Yunnan Phytopharmaceutical Co., Ltd., which follows the National Drug Standard (Amendment) WS3-B-3428-98-2010 and can be directly injected into human bodies) were added to P3-P5 cells respectively. The concentration of the ligustrazine hydrochloride was 40-80 mg/L and the Shenmai injection was 0.5% by volume. After culture for 24 hours, change the medium and culture for another one week, the cells grown to a fusion degree of 80-90% were collected and digested for tests. The products obtained in the steps are biodetected to eliminate etiological contamination.
The cells were divided into three groups: a. only the Shenmai injection was added; b. only the ligustrazine hydrochloride was added; and c. both the Shenmai injection and the ligustrazine hydrochloride were added for comparison.

In the case of `Cc1nc(C)c(C)nc1C` [ligustrazine hydrochloride], the “agglomeration of the cells” value is “improved to some extent”.

For the origin of these results see patent US11821005B2, “Umbilical cord mesenchymal stem cells (MSCs) and culture method and application thereof” (FOSHAN JINGZHUN JIEN HEALTH MANAGEMENT CONSULTING CO., LTD., priority 2019, dated 2023).
